The record followed here is article PMC11960969, “Mdga2 deficiency leads to an aberrant activation of BDNF/TrkB signaling that underlies autism-relevant synaptic and behavioral changes in mice” (PLOS Biology, 2025).

Test [1] relates to TrkB signaling and synaptic proteins (pTrkB, pAkt, pmTOR, NLGN1, PSD-95, PSD-93). Kind of test: Immunoblotting of TrkB signaling and synaptic proteins in primary neurons treated with ANA-12. Conditions: primary neurons from Mdga2+/- and Mdga2-/- mice, 10 μM, 24 h, n = 3. The class given is cell-based, mouse.
Test [2] concerns CA1 pyramidal neurons (mEPSC, mIPSC). In words: Whole-cell recording of mEPSCs and mIPSCs in hippocampal slices. Also on record: species or system mouse. The following applies: chronic 0.5 mg/kg i.p.
The test system of test [3] is cell surface GluA1, GluN1. Kind of test: Cell surface biotinylation of GluA1 and GluN1 in hippocampal neurons. Type of test: cell-based, mouse. Conditions: 10 μM ANA-12, 24 h, 12 DIV. On the procedure: ANA-12 was dissolved in saline containing 10% DMSO to a final concentration of 0.5 mg/kg and intraperitoneally administered into male mice. For chronic treatment, ANA-12 was administered to 3-week-old male mice at twice/week for 3 weeks until mice reached 6 weeks of age. For acute treatment, ANA-12 was administered to 4-week-old male mice for three consecutive days. For and cultured neurons, ANA-12 was suspended to a 10 mM concentration in DMSO and diluted 1:1,000 in solution. Final concentration for treatment is 10 µ M with 0.1% DMSO.
Supplementary file pbio.3003047.s005.tif: S5 Fig Pharmacological inhibition of […] improves social behaviors in Mdga2 ^+/− mice. (A, B) The miniature inhibitory postsynaptic currents (mIPSCs) of hippocampal neurons in treated Het mice and their wild-type (WT) littermates were recorded and their kinetics (rise time and decay) were quantified for comparison. n = 14 cells from 3 mice per group. (C, D) The miniature excitatory postsynaptic currents (mEPSCs) of hippocampal neurons in treated mice were recorded and their kinetics (rise time and decay) were quantified for comparison. n = 14 cells from 3 mice per group. (E) Representative traces of evoked NMDAR-mediated EPSCs and quantitative analysis of evoked NMDAR-mediated EPSC amplitude with increasing stimulus intensity. n = 20–23 cells from 3 mice per group. […]

A further test deals with TrkB signaling. Kind of test: Time course of TrkB signaling inhibition in cerebrum after i.p. ANA-12 (immunoblotting). Type of test: in vivo, mouse. The following applies: 0.5 mg/kg i.p., WT and Mdga2-/- mice, S4A Fig. The procedure:
Equal protein amounts of total lysates from cells or mouse tissues were subjected to SDS-PAGE and immunoblotted with antibodies indicated. For Co-IP, 1 mg of protein lysates were incubated with antibodies indicated and Protein G Agarose (ThermoFisher, Cat# 20399) beads at 4 °C overnight, and immunoprecipitated proteins were then subjected to SDS-PAGE and immunoblotting. Uncropped immunoblotting images are shown in S1 Raw Images.
ANA-12 was dissolved in saline containing 10% DMSO to a final concentration of 0.5 mg/kg and intraperitoneally administered into male mice. For chronic treatment, ANA-12 was administered to 3-week-old male mice at twice/week for 3 weeks until mice reached 6 weeks of age. […]
Supplementary file pbio.3003047.s004.tif: S4 Fig Acute ANA-12 treatment temporarily rescues social deficits in Mdga2 ^+/− mice. […] (C–G) Mice were analyzed for their total travel distance in the open field test (C), their discrimination index in the novel location recognition test (D), their time spent self-grooming and bouts of self-grooming (E), their sniffing time in the social affiliation test (F), and their sociability and social novelty preferences in the three-chamber test (G). n = 15 mice per group. […] P-values were determined by two-way ANOVA with Tukey’s multiple comparisons test. ns: not significant, *p < 0.05, **p < 0.01, ***p < 0.001, ns: not significant. […]

As to `O=C(Nc1ccccc1C(=O)NC1CCCCNC1=O)c1cc2ccccc2s1` (centres unmarked) [ANA-12, reference compound], the “increased levels of pTrkB, pAkt, pmTOR, NLGN1, PSD-95, and PSD-93” value in test [1] was “effectively reversed increased levels of pTrkB, pAkt, pmTOR, NLGN1, PSD-95, and PSD-93”. In test [2] (Mdga2+/- mice, CA1, n = 14 cells from 3 mice, Interaction F(1,52) = 6.023, p = 0.0175, 5.282, p = 0.0256), the “increased mEPSC amplitude and frequency” value is “reversed the increased mEPSC amplitude and frequency”. Besides, the “mIPSC frequency or amplitude” value in test [2] (hippocampal slices CA1, n = 15 cells from 3 mice, Interaction F(1,56) = 0.5436, p = 0.4640, 0.0127, p = 0.9106) was “nor did chronic ANA-12 treatment affect mIPSC frequency or amplitude”. Moreover, the “cell surface distribution of GluA1 in MDGA2-deficient vs WT neurons” value in test [3] is on record as “became comparable between these neurons upon ANA-12 treatment”. Also, in the test with TrkB signaling, the “time of main TrkB signaling inhibition after treatment” value was in the range of 16 to 24 h.
